Test results: patent US11180462B2, “Microbiocidal oxadiazole derivatives” (SYNGENTA PARTICIPATIONS AG, priority 2015, dated 2021)

Columns and labels:
Phakopsora Pachyrhizi = assay: Fungicidal activity against Phakopsora pachyrhizi / soybean / leaf disc preventative (Asian soybean rust); assay type: in vivo; details: foliar, 200 ppm in the applied formulation, soybean leaf disks, compared to untreated control leaf disks, read-out: disease control
In short: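 Preventative soybean leaf-disc test: discs on water agar sprayed with diluted formulated compound, inoculated one day later with spores on the lower surface. Held 24–36 h dark at 20°C, 75% rh, then 12 h light/day; percent disease control versus untreated discs scored 12–14 days after application.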

[1] = test system: Puccinia recondita f. Sp. Tritici; assay: Fungicidal activity against Puccinia recondita f. sp. tritici / wheat / leaf disc preventative (brown rust); assay type: in vivo; details: foliar, 200 ppm in the applied formulation, wheat leaf segments, preventative, compared to untreated control leaf disks, read-out: disease control
In short: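 Compound application precedes infection: segments of wheat cv. Kanzler, sprayed at 200 ppm, are inoculated with a spore suspension after 1 day. Incubation is at 19° C. with 75% relative humidity and 12 h light/12 h darkness, and control versus untreated leaves is rated 7 to 9 days post-application.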

[2] = test system: Puccinia recondita f. Sp. Tritici; assay: Fungicidal activity against Puccinia recondita f. sp. tritici / wheat / leaf disc curative (brown rust); assay type: in vivo; details: foliar, 24 h, 200 ppm in the applied formulation, wheat leaf segments, curative (applied 1 day after inoculation), compared to untreated control leaf disks, read-out: disease control
In short: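 Curative test on wheat leaf segments (cv. Kanzler) on agar, inoculated with spore suspension and held dark at 19° C, 75% RH; formulated compound in water applied 1 day after inoculation. Incubated at 19° C, 75% RH, 12 h light/12 h dark; percent disease control versus untreated scored 6 to 8 days after application.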

[3] = test system: Glomerella lagenarium (Colletotrichum lagenarium); assay: Fungicidal activity against Glomerella lagenarium (Colletotrichum lagenarium) liquid culture / cucumber / preventative (anthracnose); assay type: cell-based; details: Colletotrichum orbiculare; 20 ppm in the applied formulation; liquid culture (PDB), growth inhibition measured photometrically after 3 to 4 days; compared to untreated control; read-out: disease control
In short: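 Photometric read-out of fungal growth after 2–7 days, expressed as percent antifungal activity versus untreated check. Cryo-stored conidia in PDB; compound at 20 ppm; dark, 24 °C, 96% RH.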

O=C(CC1CC1(F)F)N(Cc1ccc(-c2noc(C(F)(F)F)n2)cc1)C1CC1 (centres unmarked) [Compound 1.138, N-cyclopropyl-2-(2,2-difluorocyclopropyl)-N-[[4-[5-(trifluoromethyl)-1,2,4-oxadiazol-3-yl]phenyl]methyl]-acetamide]
≥ 80%: pest or weed control at 200 ppm (Phakopsora Pachyrhizi) | pest or weed control at 200 ppm [1] | pest or weed control at 200 ppm [2] | inhibition of growth at 20 ppm [3]

CCCN(Cc1ccc(-c2noc(C(F)(F)F)n2)cc1)C(=O)C1(C)CC1 [Compound 1.658, 1-methyl-N-propyl-N-[[4-[5-(trifluoromethyl)-1,2,4-oxadiazol-3-yl]phenyl]methyl]-cyclopropane-carboxamide]
≥ 80%: pest or weed control at 200 ppm (Phakopsora Pachyrhizi) | pest or weed control at 200 ppm [1] | pest or weed control at 200 ppm [2] | inhibition of growth at 20 ppm [3]

CON(Cc1ccc(-c2noc(C(F)(F)F)n2)cc1)C(=O)NCC1(C#N)CC1 [Compound 3.40, 3-[(1-cyanocyclopropyl)-methyl]-1-methoxy-1-[[4-[5-(trifluoromethyl)-1,2,4-oxadiazol-3-yl]phenyl]methyl]urea]
≥ 80%: pest or weed control at 200 ppm (Phakopsora Pachyrhizi) | pest or weed control at 200 ppm [1] | pest or weed control at 200 ppm [2] | inhibition of growth at 20 ppm [3]

COCCC(=O)N(Cc1ccc(-c2noc(C(F)(F)F)n2)cc1)CC1CC1 [Compound 1.217, N-(cyclopropylmethyl)-3-melhoxy-N-[[4-[5-(trifluoromethyl)-1,2,4-oxadiazol-3-yl]phenyl]methyl]-propanamide]
≥ 80%: pest or weed control at 200 ppm (Phakopsora Pachyrhizi) | pest or weed control at 200 ppm [1] | pest or weed control at 200 ppm [2] | inhibition of growth at 20 ppm [3]

CC(=O)N(O)Cc1ccc(-c2noc(C(F)(F)F)n2)cc1 [Compound 1.773, N-hydroxy-N-[[4-[5-(trifluoromethyl)-1,2,4-oxadiazol-3-yl]phenyl]methyl]-acetamide]
≥ 80%: pest or weed control at 200 ppm (Phakopsora Pachyrhizi) | pest or weed control at 200 ppm [1] | pest or weed control at 200 ppm [2] | inhibition of growth at 20 ppm [3]

O=C(C1CSC1)N(Cc1ccc(-c2noc(C(F)(F)F)n2)cc1)C1CC1 [Compound 1.104, N-cyclopropyl-N-[[4-[5-(trifluoromethyl)-1,2,4-oxadiazol-3-yl]phenyl]methyl]-thietane-3-carboxamide]
≥ 80%: pest or weed control at 200 ppm (Phakopsora Pachyrhizi) | pest or weed control at 200 ppm [1] | pest or weed control at 200 ppm [2] | inhibition of growth at 20 ppm [3]

CCC(C)N(Cc1ccc(-c2noc(C(F)(F)F)n2)cc1)C(=O)C(C)OC (centres unmarked) [Compound 1.402, 2-methoxy-N-sec-butyl-N-[[4-(5-(trifluoromethyl)-1,2,4-oxadiazol-3-yl]phenyl]methyl]-propanamide]
≥ 80%: pest or weed control at 200 ppm (Phakopsora Pachyrhizi) | pest or weed control at 200 ppm [1] | pest or weed control at 200 ppm [2] | inhibition of growth at 20 ppm [3]

CC(C)N(Cc1ccc(-c2noc(C(F)(F)F)n2)cc1)C(=O)C1CCC1 [Compound 1.675, N-isopropyl-N-[[4-[5-(trifluoromethyl)-1,2,4-oxadiazol-3-yl]phenyl]methyl]-cyclobutane-carboxamide]
≥ 80%: pest or weed control at 200 ppm (Phakopsora Pachyrhizi) | pest or weed control at 200 ppm [1] | pest or weed control at 200 ppm [2] | inhibition of growth at 20 ppm [3]

CC(C)N(Cc1ccc(-c2noc(C(F)(F)F)n2)cc1)C(=O)C1(C#N)CC1 [Compound 1.684, 1 cyano-N-isopropyl-N-[[4-[5-(trifluoromethyl)-1,2,4-oxadiazol-3-yl]phenyl]methyl]-cyclopropane-carboxamide]
≥ 80%: pest or weed control at 200 ppm (Phakopsora Pachyrhizi) | pest or weed control at 200 ppm [1] | pest or weed control at 200 ppm [2] | inhibition of growth at 20 ppm [3]

CNC(=O)N(Cc1ccc(-c2noc(C(F)(F)F)n2)cc1)OC [Compound 3.4, 1-methoxy-3-methyl-1-[[4-[5-(trifluoromethyl)-1,2,4-oxadiazol-3-yl]phenyl]methyl]urea]
≥ 80%: pest or weed control at 200 ppm (Phakopsora Pachyrhizi) | pest or weed control at 200 ppm [1] | pest or weed control at 200 ppm [2] | inhibition of growth at 20 ppm [3]

CCN(Cc1ccc(-c2noc(C(F)(F)F)n2)cc1)C(=O)C(C)OC (centres unmarked) [Compound 1.512, N-ethyl-2-methoxy-N-[[4-[5-(trifluoromethyl)-1,2,4-oxadiazol-3-yl]phenyl]methyl]-propanamide]
≥ 80%: pest or weed control at 200 ppm (Phakopsora Pachyrhizi) | pest or weed control at 200 ppm [1] | pest or weed control at 200 ppm [2] | inhibition of growth at 20 ppm [3]

COCCN(Cc1ccc(-c2noc(C(F)(F)F)n2)cc1)C(=O)C1(C#N)CC1 [Compound 1.356, 1-cyano-N-(2-methoxyethyl)-N-[[4-[5-(trifluoromethyl)-1,2,4-oxadiazol-3-yl]phenyl]methyl]-cyclopropane-carboxamide]
≥ 80%: pest or weed control at 200 ppm (Phakopsora Pachyrhizi) | pest or weed control at 200 ppm [1] | pest or weed control at 200 ppm [2] | inhibition of growth at 20 ppm [3]

CON(Cc1ccc(-c2noc(C(F)(F)F)n2)cc1)C(=O)NCc1ccccc1 [Compound 3.15, 3-benzyl-1-methoxy-1-[[4-[5-(trifluoromethyl)-1,2,4-oxadiazol-3-yl]phenyl]methyl]urea]
≥ 80%: pest or weed control at 200 ppm (Phakopsora Pachyrhizi) | pest or weed control at 200 ppm [1] | pest or weed control at 200 ppm [2] | inhibition of growth at 20 ppm [3]

CCC(=O)OCCN(Cc1ccc(-c2noc(C(F)(F)F)n2)cc1)C(=O)CC [Compound 1.590, 2-[propanoyl-[[4-[5-(trifluoromethyl)-1,2,4-oxadiazol-3-yl]phenyl]methyl]-amino]ethyl propanoate]
≥ 80%: pest or weed control at 200 ppm (Phakopsora Pachyrhizi) | pest or weed control at 200 ppm [1] | pest or weed control at 200 ppm [2] | inhibition of growth at 20 ppm [3]

O=C(C1CC1(F)F)N(Cc1ccc(-c2noc(C(F)(F)F)n2)cc1)CC(F)(F)F (centres unmarked) [Compound 1.690, 2,2-difluoro-N-(2,2,2-trifluoroethyl)-N-[[4-[5-(trifluoromethyl)-1,2,4-oxadiazol-3-yl]phenyl]methyl]-cyclopropane-carboxamide]
≥ 80%: pest or weed control at 200 ppm (Phakopsora Pachyrhizi) | pest or weed control at 200 ppm [1] | pest or weed control at 200 ppm [2] | inhibition of growth at 20 ppm [3]

CN(Cc1ccc(-c2noc(C(F)(F)F)n2)cc1)C(=O)C1CCCC1 [Compound 1.515, N-methyl-N-[[4-[5-(trifluoromethyl)-1,2,4-oxadiazol-3-yl]phenyl]methyl]-cyclopentane-carboxamide]
≥ 80%: pest or weed control at 200 ppm (Phakopsora Pachyrhizi) | pest or weed control at 200 ppm [1] | pest or weed control at 200 ppm [2] | inhibition of growth at 20 ppm [3]

COCCN(Cc1ccc(-c2noc(C(F)(F)F)n2)cc1)C(=O)C(C)C [Compound 1.325, N-(2-methoxyethyl)-2-methyl-N-[[4-[5-(trifluoromethyl)-1,2,4-oxadiazol-3-yl]phenyl]methyl]-propanamide]
≥ 80%: pest or weed control at 200 ppm (Phakopsora Pachyrhizi) | pest or weed control at 200 ppm [1] | pest or weed control at 200 ppm [2] | inhibition of growth at 20 ppm [3]

COC(C)(C)C(=O)N(C)Cc1ccc(-c2noc(C(F)(F)F)n2)cc1 [Compound 1.782, 2-methoxy-N,2-dimethyl-N-[[4-[5-(trifluoromethyl)-1,2,4-oxadiazol-3-yl]phenyl]methyl]-propanamide]
≥ 80%: pest or weed control at 200 ppm (Phakopsora Pachyrhizi) | pest or weed control at 200 ppm [1] | pest or weed control at 200 ppm [2] | inhibition of growth at 20 ppm [3]

CCC(=O)N(Cc1ccc(-c2noc(C(F)(F)F)n2)cc1)CC1CCCO1 (centres unmarked) [Compound 1.432, N-(tetrahydrofuran-2-ylmethyl)-N-[[4-[5-(trifluoromethyl)-1,2,4-oxadiazol-3-yl]phenyl]methyl]-propanamide]
≥ 80%: pest or weed control at 200 ppm (Phakopsora Pachyrhizi) | pest or weed control at 200 ppm [1] | pest or weed control at 200 ppm [2] | inhibition of growth at 20 ppm [3]

CCN(Cc1ccc(-c2noc(C(F)(F)F)n2)cc1)C(=O)C1CC1(F)F (centres unmarked) [Compound 1.504, N-ethyl-2,2-difluoro-N-[[4-[5-(trifluoromethyl)-1,2,4-oxadiazol-3-yl]phenyl]methyl]-cyclopropane-carboxamide]
≥ 80%: pest or weed control at 200 ppm (Phakopsora Pachyrhizi) | pest or weed control at 200 ppm [1] | pest or weed control at 200 ppm [2] | inhibition of growth at 20 ppm [3]

CON(Cc1ccc(-c2noc(C(F)(F)F)n2)cc1)C(=O)c1ccccc1 [Compound 1.3, N-methoxy-N-[[4-[5-(trifluoromethyl)-1,2,4-oxadiazol-3-yl]phenyl]methyl]-benzamide]
≥ 80%: pest or weed control at 200 ppm (Phakopsora Pachyrhizi) | pest or weed control at 200 ppm [1] | pest or weed control at 200 ppm [2] | inhibition of growth at 20 ppm [3]

C#CCN(Cc1ccc(-c2noc(C(F)(F)F)n2)cc1)C(=O)CC#N [Compound 1.199, 2-cyano-N-prop-2-ynyl-N-[[4-[5-(trifluoromethyl)-1,2,4-oxadiazol-3-yl]phenyl]methyl]-acetamide]
≥ 80%: pest or weed control at 200 ppm (Phakopsora Pachyrhizi) | pest or weed control at 200 ppm [1] | pest or weed control at 200 ppm [2] | inhibition of growth at 20 ppm [3]

CON(Cc1ccc(-c2noc(C(F)(F)F)n2)cc1)C(=O)Nc1ccccc1 [Compound 3.8, 1-methoxy-3-phenyl-1-[[4-[5-(trifluoromethyl)-1,2,4-oxadiazol-3-yl]phenyl]methyl]urea]
≥ 80%: pest or weed control at 200 ppm (Phakopsora Pachyrhizi) | pest or weed control at 200 ppm [1] | pest or weed control at 200 ppm [2] | inhibition of growth at 20 ppm [3]
